Reference: patent US12180192B2, “Modulators of THR-β and methods of use thereof” (ALIGOS THERAPEUTICS, INC., priority 2019, dated 2024)
Like-named read-outs stand apart in the source and are kept apart here.

System: CPT1A gene expression in Huh-7 cells
Assay: Huh-7 differential gene expression, CPT1A RT-qPCR (Assay 3)
Format: cell-based
Conditions: Homo sapiens, Huh-7, 24 h; for EC50: read-out: Activity category Assay 3 EC50; for Emax: read-out: Activity category Assay 3 Emax
Experimental: Huh-7 Differential Gene Expression (Assay 3)
Fetal bovine serum (FBS) was incubated with washed resin (50 mg resin/mL FBS; resin weight is dry weight of resin prior to washing) for 5 hr at room temperature on a rotor. The FBS was separated from the resin via centrifugation and incubated with new, washed resin for 18 h at room temperature on a rotor.
Cell Culture and Drug Treatment
Huh-7 cells were cultured in DMEM (10-013-CM, Corning) supplemented with 10% FBS and 1% Pen-Strep at 37° C. under 5% C02. When 70-80% confluence was reached, the cells were removed by trypsinization. The medium was aspirated from the cell culture dish, the cell monolayer was washed with 1×PBS, and 0.05% trypsin, 0.53 mM EDTA (25-052-CV, Corning) solution was added to the dish. After 3 min incubation, the cells were detached completely by repeatedly pipetting solution onto the monolayer. Equal volume of DMEM supplemented with 10% rFBS and 1% Pen-Strep (TH-depleted DMEM) was added to the dish to inactivate the trypsin. The cell suspension was centrifuged at 350×g at room temperature for 3 min. The supernatant was aspirated out and the cell pellet was resuspended in TH-depleted DMEM. […] After 24 hr incubation, the media was replaced with treatment media. All compounds were serially diluted in DMSO and final concentrations were reached by dilution in TH-depleted DMEM (0.1% DMSO). The cells were incubated in treatment media for 24 hr. Treatments were performed in biological duplicates.
After 24 hr in treatment media, the cells were lysed directly on the culture plates and cDNA was produced using the TaqMan™ Fast Advanced Cells-to-CT™ Kit (A35374, Invitrogen) and following the manufacturer's protocol. RT-qPCR for CPT1A (Hs00912671_m1) and two housekeeping genes, ACTB (Hs01060665_g1) and TFG (Hs02832013_g1), was performed using TaqMan™ Fast Advanced Master Mix. RT-qPCR reactions were run on the qTOWER^3 84 G (Analytik Jena) in technical duplicates.
ΔRn values were obtained from the qPCRsoft384 1.0 software and CPT1A gene expression was quantified via the 2-ΔΔCt method. Dose-response curves were generated using GraphPad Prism 8 using four parameter logistic equation without top constraint to derive EC50 and Emax.

[1] = Table 6, Huh-7 cells, CPT1A, 24 hr treatment

SMILES	EC50 [1]	Emax [1]	EC50	Emax
Nc1nn(-c2cc(Cl)c(Oc3cc(C4CCCC4)c(=O)[nH]n3)c(Cl)c2)c(=O)[nH]c1=O [Compound 42, 6-amino-2-(3,5-dichloro-4-((5-cyclopentyl-6-oxo-1,6-dihydropyridazin-3-yl)oxy)phenyl)-1,2,4-triazine-3,5(2H,4H)-dione]	< 100 nM	50 to 75%		
N[C@@H](Cc1cc(I)c(Oc2ccc(O)c(I)c2)c(I)c1)C(=O)O [Compound T3, triiodothyronine, reference compound]			< 100 nM	> 75%
C#Cc1nn(-c2cc(Cl)c(Oc3cc(C(C)C)c(=O)[nH]n3)c(Cl)c2)c(=O)[nH]c1=O [Compound 11, 2-[3,5-dichloro-4-[(5-isopropyl-6-oxo-1H-pyridazin-3-yl)oxy]phenyl]-6-ethynyl-4H-1,2,4-triazine-3,5-dione]	< 100 nM	> 75%		
